As usually defined, the viability, T/C is the ratio of treated to control.
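Note: spheroids exposed to compounds for seven days; 100% = DMSO vehicle control viability.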

The subject of the first assay is 454973-116-R2-J3-PDC spheroids, viability, % test/control. As to the kind of experiment: Anticancer human tumor 454973-116-R2-J3-PDC patient-derived pancreatic carcinoma cell line growth inhibition [GQUAD]. Particulars: second compound 0.0316 µM; first compound 3.16 µM; hits give low values; spheroids with HUVEC and MSC. A digest of the protocol: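 Multi-cell-type spheroids of tumor cells with HUVEC and mesenchymal stem cells, treated with drug combinations. Concentrations descend in half-log steps from near clinical Cmax, or from 10 microM where Cmax is unknown; viability read-out.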
With `CC1COCCN1c1cc(C2(S(C)(=N)=O)CC2)nc(-c2ccnc3[nH]ccc23)n1` (configuration not stated) + Cc1[nH]c2ccc(F)cc2c1-c1nc2c3cccnc3c3ncccc3c2[nH]1, the viability, T/C is 76%.
Still for that read-out and setting: in the case of `COc1ccc([C@@H](O)c2cc(-c3ncnc4cc(N5CCOCC5)ccc34)c(F)cc2Cl)nn1` + Cc1[nH]c2ccc(F)cc2c1-c1nc2c3cccnc3c3ncccc3c2[nH]1 it was 59.3%.

The same assay, now with this note: second compound 0.0316 µM; first compound 10 µM; hits give low values; spheroids with HUVEC and MSC.
On to `CC1COCCN1c1cc(-c2ccnn2C)c2ccnc(-c3ccn[nH]3)c2n1` (configuration not stated) + Cc1[nH]c2ccc(F)cc2c1-c1nc2c3cccnc3c3ncccc3c2[nH]1, for which the viability, T/C was 23.6%.
On the same count and under the same terms, with `CC1COCCN1c1cc(C2(O)CC3CCC(C2)O3)c2cnn(-c3ccn[nH]3)c2n1` (configuration not stated) + Cc1[nH]c2ccc(F)cc2c1-c1nc2c3cccnc3c3ncccc3c2[nH]1 the figure was 12.3%; with `CC1COCCN1c1cc(C2(S(C)(=N)=O)CC2)nc(-c2ccnc3[nH]ccc23)n1` (configuration not stated) + Cc1[nH]c2ccc(F)cc2c1-c1nc2c3cccnc3c3ncccc3c2[nH]1, 28.1%.
Still for that read-out and setting: in the case of `COc1ccc([C@@H](O)c2cc(-c3ncnc4cc(N5CCOCC5)ccc34)c(F)cc2Cl)nn1` + Cc1[nH]c2ccc(F)cc2c1-c1nc2c3cccnc3c3ncccc3c2[nH]1 it was 46.9%.

Still in this assay, the particulars now being: second compound 0.1 µM; first compound 0.0316 µM; hits give low values; spheroids with HUVEC and MSC.
`CC1COCCN1c1cc(-c2ccnn2C)c2ccnc(-c3ccn[nH]3)c2n1` (configuration not stated) + Cc1[nH]c2ccc(F)cc2c1-c1nc2c3cccnc3c3ncccc3c2[nH]1: the viability, T/C was 98.1%.
Turning to `CC1COCCN1c1cc(C2(O)CC3CCC(C2)O3)c2cnn(-c3ccn[nH]3)c2n1` (configuration not stated) + Cc1[nH]c2ccc(F)cc2c1-c1nc2c3cccnc3c3ncccc3c2[nH]1, the viability, T/C was 87%.
The same measure, in the same setting: with `CC1COCCN1c1cc(C2(S(C)(=N)=O)CC2)nc(-c2ccnc3[nH]ccc23)n1` (configuration not stated) + Cc1[nH]c2ccc(F)cc2c1-c1nc2c3cccnc3c3ncccc3c2[nH]1 the figure was 106%.
Consider `COc1ccc([C@@H](O)c2cc(-c3ncnc4cc(N5CCOCC5)ccc34)c(F)cc2Cl)nn1` + Cc1[nH]c2ccc(F)cc2c1-c1nc2c3cccnc3c3ncccc3c2[nH]1, for which the viability, T/C was 115%.

The same assay, now with this note: second compound 0.1 µM; first compound 0.1 µM; hits give low values; spheroids with HUVEC and MSC.
As to `CC1COCCN1c1cc(-c2ccnn2C)c2ccnc(-c3ccn[nH]3)c2n1` (configuration not stated) + Cc1[nH]c2ccc(F)cc2c1-c1nc2c3cccnc3c3ncccc3c2[nH]1, the viability, T/C is 67.1%.
In the case of `CC1COCCN1c1cc(C2(O)CC3CCC(C2)O3)c2cnn(-c3ccn[nH]3)c2n1` (configuration not stated) + Cc1[nH]c2ccc(F)cc2c1-c1nc2c3cccnc3c3ncccc3c2[nH]1, the viability, T/C is 58.9%.
Still for that read-out and setting: in the case of `CC1COCCN1c1cc(C2(S(C)(=N)=O)CC2)nc(-c2ccnc3[nH]ccc23)n1` (configuration not stated) + Cc1[nH]c2ccc(F)cc2c1-c1nc2c3cccnc3c3ncccc3c2[nH]1 it was 96.9%.
On to `COc1ccc([C@@H](O)c2cc(-c3ncnc4cc(N5CCOCC5)ccc34)c(F)cc2Cl)nn1` + Cc1[nH]c2ccc(F)cc2c1-c1nc2c3cccnc3c3ncccc3c2[nH]1, for which the viability, T/C is 104%.

Still in this assay, the particulars now being: second compound 0.1 µM; first compound 0.316 µM; hits give low values; spheroids with HUVEC and MSC.
As for `CC1COCCN1c1cc(-c2ccnn2C)c2ccnc(-c3ccn[nH]3)c2n1` (configuration not stated) + Cc1[nH]c2ccc(F)cc2c1-c1nc2c3cccnc3c3ncccc3c2[nH]1, the viability, T/C was 30.6%.
The same measure, in the same setting: with `CC1COCCN1c1cc(C2(O)CC3CCC(C2)O3)c2cnn(-c3ccn[nH]3)c2n1` (configuration not stated) + Cc1[nH]c2ccc(F)cc2c1-c1nc2c3cccnc3c3ncccc3c2[nH]1 the figure was 28.9%; with `CC1COCCN1c1cc(C2(S(C)(=N)=O)CC2)nc(-c2ccnc3[nH]ccc23)n1` (configuration not stated) + Cc1[nH]c2ccc(F)cc2c1-c1nc2c3cccnc3c3ncccc3c2[nH]1, 110%; with `COc1ccc([C@@H](O)c2cc(-c3ncnc4cc(N5CCOCC5)ccc34)c(F)cc2Cl)nn1` + Cc1[nH]c2ccc(F)cc2c1-c1nc2c3cccnc3c3ncccc3c2[nH]1, 95.3%.

The assay is the same for the next values; noted with them: second compound 0.1 µM; first compound 1 µM; hits give low values; spheroids with HUVEC and MSC.
On to `CC1COCCN1c1cc(-c2ccnn2C)c2ccnc(-c3ccn[nH]3)c2n1` (configuration not stated) + Cc1[nH]c2ccc(F)cc2c1-c1nc2c3cccnc3c3ncccc3c2[nH]1, for which the viability, T/C was 23.3%.
On the same count and under the same terms, in the case of `CC1COCCN1c1cc(C2(O)CC3CCC(C2)O3)c2cnn(-c3ccn[nH]3)c2n1` (configuration not stated) + Cc1[nH]c2ccc(F)cc2c1-c1nc2c3cccnc3c3ncccc3c2[nH]1 it was 21.3%; in that of `CC1COCCN1c1cc(C2(S(C)(=N)=O)CC2)nc(-c2ccnc3[nH]ccc23)n1` (configuration not stated) + Cc1[nH]c2ccc(F)cc2c1-c1nc2c3cccnc3c3ncccc3c2[nH]1, 107%; in that of `COc1ccc([C@@H](O)c2cc(-c3ncnc4cc(N5CCOCC5)ccc34)c(F)cc2Cl)nn1` + Cc1[nH]c2ccc(F)cc2c1-c1nc2c3cccnc3c3ncccc3c2[nH]1, 85.4%.

The same assay, now with this note: second compound 0.1 µM; first compound 3.16 µM; hits give low values; spheroids with HUVEC and MSC.
`CC1COCCN1c1cc(-c2ccnn2C)c2ccnc(-c3ccn[nH]3)c2n1` (configuration not stated) + Cc1[nH]c2ccc(F)cc2c1-c1nc2c3cccnc3c3ncccc3c2[nH]1: the viability, T/C was 24%.
As to `CC1COCCN1c1cc(C2(O)CC3CCC(C2)O3)c2cnn(-c3ccn[nH]3)c2n1` (configuration not stated) + Cc1[nH]c2ccc(F)cc2c1-c1nc2c3cccnc3c3ncccc3c2[nH]1, the viability, T/C is 21.8%.
Same read-out and setting: in the case of `CC1COCCN1c1cc(C2(S(C)(=N)=O)CC2)nc(-c2ccnc3[nH]ccc23)n1` (configuration not stated) + Cc1[nH]c2ccc(F)cc2c1-c1nc2c3cccnc3c3ncccc3c2[nH]1 it was 68.7%.
`COc1ccc([C@@H](O)c2cc(-c3ncnc4cc(N5CCOCC5)ccc34)c(F)cc2Cl)nn1` + Cc1[nH]c2ccc(F)cc2c1-c1nc2c3cccnc3c3ncccc3c2[nH]1: the viability, T/C is 75%.

Still in this assay, the particulars now being: second compound 0.1 µM; first compound 10 µM; hits give low values; spheroids with HUVEC and MSC.
In the case of `CC1COCCN1c1cc(-c2ccnn2C)c2ccnc(-c3ccn[nH]3)c2n1` (configuration not stated) + Cc1[nH]c2ccc(F)cc2c1-c1nc2c3cccnc3c3ncccc3c2[nH]1, the viability, T/C was 26.4%.
The same measure, in the same setting: with `CC1COCCN1c1cc(C2(O)CC3CCC(C2)O3)c2cnn(-c3ccn[nH]3)c2n1` (configuration not stated) + Cc1[nH]c2ccc(F)cc2c1-c1nc2c3cccnc3c3ncccc3c2[nH]1 the figure was 10.4%; with `CC1COCCN1c1cc(C2(S(C)(=N)=O)CC2)nc(-c2ccnc3[nH]ccc23)n1` (configuration not stated) + Cc1[nH]c2ccc(F)cc2c1-c1nc2c3cccnc3c3ncccc3c2[nH]1, 27.9%.
Still for that read-out and setting: in the case of `COc1ccc([C@@H](O)c2cc(-c3ncnc4cc(N5CCOCC5)ccc34)c(F)cc2Cl)nn1` + Cc1[nH]c2ccc(F)cc2c1-c1nc2c3cccnc3c3ncccc3c2[nH]1 it was 55.3%.

The same assay, now with this note: second compound 0.316 µM; first compound 0.0316 µM; hits give low values; spheroids with HUVEC and MSC.
As for `CC1COCCN1c1cc(-c2ccnn2C)c2ccnc(-c3ccn[nH]3)c2n1` (configuration not stated) + Cc1[nH]c2ccc(F)cc2c1-c1nc2c3cccnc3c3ncccc3c2[nH]1, the viability, T/C is 97.8%.
Same read-out and setting: in the case of `CC1COCCN1c1cc(C2(O)CC3CCC(C2)O3)c2cnn(-c3ccn[nH]3)c2n1` (configuration not stated) + Cc1[nH]c2ccc(F)cc2c1-c1nc2c3cccnc3c3ncccc3c2[nH]1 it was 91.6%; in that of `CC1COCCN1c1cc(C2(S(C)(=N)=O)CC2)nc(-c2ccnc3[nH]ccc23)n1` (configuration not stated) + Cc1[nH]c2ccc(F)cc2c1-c1nc2c3cccnc3c3ncccc3c2[nH]1, 99.7%.
In the case of `COc1ccc([C@@H](O)c2cc(-c3ncnc4cc(N5CCOCC5)ccc34)c(F)cc2Cl)nn1` + Cc1[nH]c2ccc(F)cc2c1-c1nc2c3cccnc3c3ncccc3c2[nH]1, the viability, T/C is 99.3%.

Staying with this assay, now noted: second compound 0.316 µM; first compound 0.1 µM; hits give low values; spheroids with HUVEC and MSC.
As for `CC1COCCN1c1cc(-c2ccnn2C)c2ccnc(-c3ccn[nH]3)c2n1` (configuration not stated) + Cc1[nH]c2ccc(F)cc2c1-c1nc2c3cccnc3c3ncccc3c2[nH]1, the viability, T/C is 65.8%.
On the same count and under the same terms, in the case of `CC1COCCN1c1cc(C2(O)CC3CCC(C2)O3)c2cnn(-c3ccn[nH]3)c2n1` (configuration not stated) + Cc1[nH]c2ccc(F)cc2c1-c1nc2c3cccnc3c3ncccc3c2[nH]1 it was 66.4%.
Regarding `CC1COCCN1c1cc(C2(S(C)(=N)=O)CC2)nc(-c2ccnc3[nH]ccc23)n1` (configuration not stated) + Cc1[nH]c2ccc(F)cc2c1-c1nc2c3cccnc3c3ncccc3c2[nH]1, the viability, T/C was 110%.
Same read-out and setting: in the case of `COc1ccc([C@@H](O)c2cc(-c3ncnc4cc(N5CCOCC5)ccc34)c(F)cc2Cl)nn1` + Cc1[nH]c2ccc(F)cc2c1-c1nc2c3cccnc3c3ncccc3c2[nH]1 it was 106%.

Still in this assay, the particulars now being: second compound 0.316 µM; first compound 0.316 µM; hits give low values; spheroids with HUVEC and MSC.
Take `CC1COCCN1c1cc(-c2ccnn2C)c2ccnc(-c3ccn[nH]3)c2n1` (configuration not stated) + Cc1[nH]c2ccc(F)cc2c1-c1nc2c3cccnc3c3ncccc3c2[nH]1: the viability, T/C was 31%.
Turning to `CC1COCCN1c1cc(C2(O)CC3CCC(C2)O3)c2cnn(-c3ccn[nH]3)c2n1` (configuration not stated) + Cc1[nH]c2ccc(F)cc2c1-c1nc2c3cccnc3c3ncccc3c2[nH]1, the viability, T/C was 27.7%.
The same measure, in the same setting: in the case of `CC1COCCN1c1cc(C2(S(C)(=N)=O)CC2)nc(-c2ccnc3[nH]ccc23)n1` (configuration not stated) + Cc1[nH]c2ccc(F)cc2c1-c1nc2c3cccnc3c3ncccc3c2[nH]1 it was 110%.
Same read-out and setting: in the case of `COc1ccc([C@@H](O)c2cc(-c3ncnc4cc(N5CCOCC5)ccc34)c(F)cc2Cl)nn1` + Cc1[nH]c2ccc(F)cc2c1-c1nc2c3cccnc3c3ncccc3c2[nH]1 it was 85.4%.

(Values after PubChem BioAssay AID2060508 (Molecular Pharmacology Branch, DTP, NCI, 2025).)
